Measured values as given in US7098372B1, “Pharmaceutical compositions and methods of using secreted frizzled related protein” (Wyeth, priority 1999, dated 2006).

Legend:
hOB SFRP mRNA = hOB SFRP mRNA levels after treatment with various agents (method not given); type: cell-based, human; conditions: for effect on hOB SFRP mRNA levels: hOB-03-C5 cells or hOB-03-CE6 cells; for effect on hOB SFRP message expression: various hOB cell lines
hOB-01-C1-PS-09 cells [1] = experiment: Alkaline phosphatase activity in hOB-01-C1-PS-09 cells; type: cell-based, human
Excerpt: (§1) Unlike the parental hOB-01-C1 cell line, the hOB-01-C1-PS-09 cells proliferate 2- to 3-times faster at the permissive temperature with a doubling time of once every 2–3 days (FIG. 22A). However, like the parental cells, the hOB-01-C1-PS-09 cells stop dividing at the non-permissive temperature (FIG. 22A). […] Alkaline phosphatase and osteocalcin are two important markers of the osteocytic lineage.
In addition to vitamin D3 and PTH, the hOB-01-C1-PS-09 cells also respond to additional bone-active agents: for example, glucocorticoids and transforming growth factor (TGF)-β1. Treatment of the cells with the synthetic glucocorticoid, dexamethasone, up-regulates alkaline phosphatase activity approximately 2-fold at 34° C. (FIG. 25), and this effect is once again enhanced when the cells are incubated at 39° C.

hOB-01-C1-PS-09 cells [2] = experiment: Osteocalcin secretion from hOB-01-C1-PS-09 cells; type: cell-based, human
Excerpt: as §1
However, the secosteroid up-regulates production of this bone-specific matrix protein 11-fold when the cells are incubated at 39° C. It should be noted that the basal levels of alkaline phosphatase expression and osteocalcin secretion by the hOB-01-C1-PS-09 cells are similar to the parental cell line. Thus, both morphologically and biochemically, the hOB-01-C1-PS-09 cells resemble the parental hOB-01-C1 cells and are therefore a reliable in vitro model to study human pre-osteocyte biology.

human SARP-2 = molecular target: T1, human SARP-2 (Homo sapiens, UniProt Q8N474); experiment: Reversal of PGE2-accelerated hOB cell death, Coulter cell counter; type: cell-based; conditions: co-treatment with PGE2, hOB-03-C5 and hOB-03-CE6 cells
T1 construct: endogenous in cells; host or cells: hOB-03-C5 and hOB-03-CE6 human osteoblast cell lines treated with PGE2
T1 sequence (Q8N474 32-314): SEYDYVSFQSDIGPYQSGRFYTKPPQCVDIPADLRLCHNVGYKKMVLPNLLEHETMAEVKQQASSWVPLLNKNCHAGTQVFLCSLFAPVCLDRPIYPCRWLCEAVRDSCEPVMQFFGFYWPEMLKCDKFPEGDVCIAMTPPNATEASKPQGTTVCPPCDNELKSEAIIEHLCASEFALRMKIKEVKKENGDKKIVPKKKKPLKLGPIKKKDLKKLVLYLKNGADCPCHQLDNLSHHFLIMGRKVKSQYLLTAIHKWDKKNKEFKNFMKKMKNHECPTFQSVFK
Procedure: (§2) These experiments were performed in a similar manner to the ones depicted in FIG. 10. However, for these experiments, the cells were co-treated with either vehicle control (i.e., 0.1% ethanol) or PGE2 in the absence or presence of sense (control) or antisense initiation-site directed phosphorothioate oligonucleotides to human SARP-2. The results are presented as either the % relative to the day 0 control (i.e., ˜200,000 cells per well of a 6 well plate) or as the % relative to the vehicle treated control. The results of this experiment indicate that co-treatment of the hOB cells with the antisense oligonucleotide to SARP-2 reverses the ability of PGE2 to accelerate the rate of cell death, while co-treatment with the sense (control) oligonucleotide as no effect on this process.
as §2, with “The results of this experiment indicate that co-treatment of the hOB cells with the antisense oligonucleotide to SARP-2 reverses the ability of PGE2 to accelerate the rate of cell death, while co-treatment with the sense (control) oligonucleotide as no effect on this process.” left out

Wnt signaling = experiment: TCF-luciferase reporter gene assay of Wnt signaling; type: cell-based, human; conditions: transfected cDNA, hOB-01-C1-PS-09 or hOB-02-C1-PS-02 cells
Procedure: SARP-2 or human Frzb-1 expression plasmids downregulates Wnt signaling (when compared to the pcDNA3.1 empty vector control) in the hOB cells as measured by the TCF-luciferase reporter gene assay. This assay is an authentic measurement of Wnt signaling and β-catenin nuclear activity.
In order to determine if the up-regulation of SFRP-1/FRP-1/SARP-2 gene expression results in an antagonism of the Wnt signaling pathway, hOB-03-CE6 cells were treated with PGE2 and the resulting cells probed with β-catenin monoclonal antibody. Overexpression of Wnt proteins in cells up-regulates a signaling protein known as β-catenin (reviewed in Moon et al. 1997 Cell 88: 725–728; Barth et al. 1997 Curr. Opin. Cell Biol. 9: 683–690; and Nusse 1997 Cell 89: 321–323). […] Therefore, hOB-03-CE6 cells were plated and treated with PGE2 as described in Example 1, except that total cellular protein was extracted and a Western blot analysis for β-catenin was performed using a monoclonal antibody to the protein (Transduction Laboratories) as previously described (Bodine et al. 1996 Endocrinology 137: 4592–4604; Melkonyan et al. 1997 Proc. Natl. Acad. Sci. USA 94: 13636–13641). […] Both human and rat SFRP-1/FRP-1/SARP-2, as well as human Frzb-1/FrzB/Fritz, suppressed TCF-luciferase activity in the hOB cells.

## CC1=C(/C=C/C(C)=C/C=C/C(C)=C/C(=O)O)C(C)(C)CCC1 [all-trans-retinoic acid]
hOB SFRP mRNA
  effect on hOB SFRP mRNA levels: increases

## C=C1CC[C@H](O)C/C1=C/C=C1\CCC[C@]2(C)[C@@H]([C@H](C)CCCC(C)C)CC[C@@H]12 [vitamin D3]
hOB-01-C1-PS-09 cells [1]; cells incubated at 39° C.
  enhancement of up-regulation of alkaline phosphatase activity at 39° C.: about 4 fold
hOB SFRP mRNA
  effect on hOB SFRP message expression: suppresses
hOB-01-C1-PS-09 cells [2]; 34° C.
  osteocalcin secretion: unable to induce
hOB-01-C1-PS-09 cells [2]; 39° C.
  up-regulation of osteocalcin production: 11 fold

## insulin-like growth factor (IGF)-I: insulin-like growth factor (IGF)-I
hOB SFRP mRNA
  effect on hOB SFRP message expression: suppresses

## interleukin (IL)-1β: interleukin (IL)-1β
hOB SFRP mRNA
  effect on hOB SFRP mRNA levels: increases

## C[C@@H]1C[C@H]2[C@@H]3CCC4=CC(=O)C=C[C@]4(C)[C@@]3(F)[C@@H](O)C[C@]2(C)[C@@]1(O)C(=O)CO [dexamethasone]
hOB-01-C1-PS-09 cells [1]; 34° C.
  up-regulation of alkaline phosphatase activity: approximately 2 fold

## C[C@]12CC[C@@H]3c4ccc(O)cc4CC[C@H]3[C@@H]1CC[C@@H]2O [17β-estradiol]
hOB SFRP mRNA
  effect on hOB SFRP message expression: suppresses

## 5′-GGCATGGGCATCGGGCGC-3′ (phosphorothioate, further chemistry not given here) [sense (control) oligonucleotide, sense (control) initiation-site directed phosphorothioate oligonucleotide to human SARP-2]
Human SARP-2
  effect on the ability of PGE2 to accelerate the rate of hOB cell death: no effect

## CC1=C(/C=C/C(C)=C\C=C\C(C)=C\C(=O)O)C(C)(C)CCC1 [9-cis-retinoic acid]
hOB SFRP mRNA
  effect on hOB SFRP mRNA levels: increases

## 5′-GCGCCCGATGCCCATGCC-3′ (phosphorothioate, further chemistry not given here) [antisense oligonucleotide to SARP-2, antisense initiation-site directed phosphorothioate oligonucleotide to human SARP-2]
Human SARP-2
  effect on the ability of PGE2 to accelerate the rate of hOB cell death: reversed

B1: human Frzb-1/FrzB/Fritz: human Frzb-1 expression plasmid transfected into hOB cells (protein)
chain: AACEPVRIPLCKSLPWNMTKMPNHLHHSTQANAILAIEQFEGLLGTHCSPDLLFFLCAMYAPICTIDFQHEPIKPCKSVCERARQGCEPILIKYRHSWPENLACEELPVYDRGVCISPEAIVTADGADFPMDSSNGNCRGASSERCKCKPIRATQKTYFRNNYNYVIRAKVKEIKTKCHDVTAVVEVKEILKSSLVNIPRDTVNLYTSSGCLCPPLNVNEEYIIMGYEDEERSRLLLVEGSIAEKWKDRLGKKVKRWDMKLRHLGLSKSDSSNSDSTQSQKSGRNSNPRQARN
Wnt signaling
  TCF-luciferase activity: suppressed
